Reference: patent US20240270762A1, “PENICILLIN-BINDING PROTEIN INHIBITORS” (priority 2021, published 2024)
Values after ≈ are worked out from the molar mass of the structure shown.

Assays:
N. gonorrhoeae WHO G = test: Liquid broth MIC in Fastidious broth; conditions: Neisseria gonorrhoeae, read-out: Minimum Inhibitory Concentration (MIC), N. gonorrhoeae WHO G
N. gonorrhoeae WHO Q = test: Liquid broth MIC in Fastidious broth; conditions: Neisseria gonorrhoeae, read-out: Minimum Inhibitory Concentration (MIC), N. gonorrhoeae WHO Q
E. coli AG100A = test: Broth microdilution MIC in CAMHB; type: cell-based; conditions: Escherichia coli, read-out: MIC E. coli AG100A
[1] = system: N. gonorrhoeae ATCC 49226; test: Liquid broth MIC in Fastidious broth; conditions: Neisseria gonorrhoeae, ATCC49226, read-out: Minimum Inhibitory Concentration (MIC), N. gonorrhoeae ATCC 49226
N. gonorrhoeae CDC-0197 = test: Liquid broth MIC in Fastidious broth; conditions: Neisseria gonorrhoeae, CDC0197, read-out: Minimum Inhibitory Concentration (MIC), N. gonorrhoeae CDC-0197
[2] = target: T1, PBP3 from Pseudomonas aeruginosa (PAO1) (Pseudomonas aeruginosa, UniProt G3XD46); test: Bocillin-FL fluorescence polarization competition binding, P. aeruginosa PBP3; conditions: Binding affinity to P. aeruginosa PBP3; fluorescence polarization competition binding assay using Bocillin-FL; read-out: P. aeruginosa PBP3 Potency
T1 construct: made in house
Method in brief: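 Purified PBP was preincubated with inhibitor (E. coli PBP3 1.5 μM, 30 min; P. aeruginosa PBP3 0.75 μM, A. baumannii PBP3 0.2 μM and PBP1a 1 μM, 15 min), then Bocillin-FL (0.1 μM; 0.05 μM for PBP1a) added and FP read up to 60 min. EC50 = 50% loss of bound probe.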

[3] = target: T2, PBP3 from Escherichia coli (K-12) (Escherichia coli, UniProt P0AD68); test: Bocillin-FL fluorescence polarization competition binding, E. coli PBP3
T2 construct: made in house
Excerpt: (§1) To determine the ability of boronic acid-based test PBP inhibitors to bind Penicillin Binding Proteins (PBPs), Bocillin-FL (fluorescently-labeled penicillin V; ThermoFisher Scientific) was used in a fluorescence polarization (FP) competition binding assay to assess inhibitor binding to PBP3 from Escherichia coli (K-12), PBP3 from Pseudomonas aeruginosa (PAO1), PBP1a and PBP3 from Acinetobacter baumannii (ATCC 19606), and PBP2 from Neisseria gonorrhoeae (FA19). PBPs were cloned and purified as described previously (E. coli PBP3, King, D. T, et al., ACS Infectious Diseases 2015, 1, 175-184; P. aeruginosa PBP3, Han et. al., PNAS 2010, 107 (51), 22002-22007; A. baumannii PBPs, Penwell et. al., Antimicrob. Agents Chemother. 2015, 59 (3), 1680-1689; N. gonorrhoeae PBP2, Singh et. al., J. Biol. Chem. 2019, 294 (38), 14020-14032). To establish assay conditions for competition binding, enzyme titration/saturation binding experiments were initially performed. Bocillin-FL was prepared at 0.2 μM in a buffer comprised of 50 mM Hepes (pH 8.0), 300 mM NaCl and 10% (v/v) glycerol for reactions with E. coli, P. aeruginosa and N. gonorrhoeae PBPs, and 25 mM Tris (pH 8.0), 200 mM NaCl, 10% (v/v) glycerol and 0.005% (v/v) Tween 20 for reactions with A. baumannii PBPs. Saturation binding was performed by mixing 40 μl of PBP solutions ranging in concentrations from 0-24 μM with 40 μl of the 0.2 μM Bocillin-FL solution, in individual wells of a black 384-well microplate. FP was measured immediately upon mixing (Excitation, 490 nm; Emission, 520 nm; g-factor, 0.96), using a Cytation3 (BioTek) microplate reader and measured continuously for up to 120 minutes. The FP response stabilized after 15 minutes for P. aeruginosa and A. baumannii PBP3, 30 minutes for E. coli PBP3 and A. baumannii PBP1a, and less than 1 minute for N. gonorrhoeae PBP2. […] The competition binding assay (80 μl final volume) was validated using beta-lactams and PBPs at final concentrations of: 1.5 μM for E. coli PBP3; 0.75 μM for P. aeruginosa PBP3; 1 μM for A. baumannii PBP1a; 0.2 μM for A. baumannii PBP3; and 0.25 μM for N. gonorrhoeae PBP2. Bocillin-FL was at 0.1 μM (0.05 μM with A. baumannii PBP1a) and beta-lactam concentrations ranged from 0-1,000 μM. E. coli PBP3 was incubated with increasing concentrations of ampicillin in a black 384-well microplate (Corning) for 30 minutes. P. aeruginosa PBP3 was incubated for 15 minutes with aztreonam, whereas A. baumannii PBP1a and PBP3 were incubated for 15 minutes with meropenem, and then Bocillin-FL was added followed immediately by the FP measurement for up to 60 minutes. […] The beta-lactam potency was reported as the concentration of beta-lactam required to reduce the amount of PBP bound-Bocillin-FL by 50% (EC50). […] The EC50 of aztreonam was determined to be <0.5 μM for P. aeruginosa PBP3. […] Binding assays for boronic acid PBP inhibitors were performed in an identical fashion for the respective PBPs.

N. gonorrhoeae WHO L = test: Liquid broth MIC in Fastidious broth; conditions: Neisseria gonorrhoeae, read-out: Minimum Inhibitory Concentration (MIC), N. gonorrhoeae WHO L
[4] = target: T3, PBP3 from Acinetobacter baumannii (ATCC 19606) (Acinetobacter baumannii, UniProt A0ABX6CK25); test: Bocillin-FL fluorescence polarization competition binding, A. baumannii PBP3; conditions: fluorescence polarization competition binding assay using Bocillin-FL; read-out: A. baumannii PBP3 Potency
T3 sequence (A0ABX6CK25 64-610): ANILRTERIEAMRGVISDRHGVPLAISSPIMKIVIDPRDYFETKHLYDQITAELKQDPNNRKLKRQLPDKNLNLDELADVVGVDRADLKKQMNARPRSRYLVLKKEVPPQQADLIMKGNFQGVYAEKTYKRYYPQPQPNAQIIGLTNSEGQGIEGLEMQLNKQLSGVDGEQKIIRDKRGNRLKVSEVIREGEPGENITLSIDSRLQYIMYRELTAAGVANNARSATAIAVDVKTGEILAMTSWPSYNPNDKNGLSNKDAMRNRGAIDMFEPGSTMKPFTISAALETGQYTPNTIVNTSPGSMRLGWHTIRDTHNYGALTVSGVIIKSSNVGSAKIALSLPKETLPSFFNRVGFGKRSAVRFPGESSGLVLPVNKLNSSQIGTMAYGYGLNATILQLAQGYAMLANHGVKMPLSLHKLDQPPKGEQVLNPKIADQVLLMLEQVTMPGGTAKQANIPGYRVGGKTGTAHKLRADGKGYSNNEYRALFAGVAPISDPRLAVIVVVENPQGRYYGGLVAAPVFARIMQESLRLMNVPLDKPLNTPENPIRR
Excerpt: as §1

A. baumannii ATCC 17978 = test: microbe, parasite or virus in culture; type: cell-based; conditions: Acinetobacter baumannii, ATCC17978, read-out: MIC, A. baumannii ATCC 17978

T2 sequence (P0AD68 1-577): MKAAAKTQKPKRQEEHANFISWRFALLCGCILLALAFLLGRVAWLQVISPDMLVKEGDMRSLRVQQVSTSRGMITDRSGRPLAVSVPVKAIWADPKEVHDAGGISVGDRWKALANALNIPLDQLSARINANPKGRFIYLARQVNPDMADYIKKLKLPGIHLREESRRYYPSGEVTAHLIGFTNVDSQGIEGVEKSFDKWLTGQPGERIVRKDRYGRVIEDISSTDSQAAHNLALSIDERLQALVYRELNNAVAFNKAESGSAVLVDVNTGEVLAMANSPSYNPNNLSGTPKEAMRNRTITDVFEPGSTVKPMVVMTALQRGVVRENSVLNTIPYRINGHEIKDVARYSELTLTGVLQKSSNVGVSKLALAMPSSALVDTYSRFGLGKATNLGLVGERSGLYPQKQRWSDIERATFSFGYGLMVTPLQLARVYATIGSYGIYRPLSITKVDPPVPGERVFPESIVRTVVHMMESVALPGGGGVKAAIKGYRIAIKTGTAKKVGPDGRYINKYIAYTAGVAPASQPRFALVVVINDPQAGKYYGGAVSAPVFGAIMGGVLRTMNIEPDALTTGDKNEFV
T1 sequence (G3XD46 whole entry): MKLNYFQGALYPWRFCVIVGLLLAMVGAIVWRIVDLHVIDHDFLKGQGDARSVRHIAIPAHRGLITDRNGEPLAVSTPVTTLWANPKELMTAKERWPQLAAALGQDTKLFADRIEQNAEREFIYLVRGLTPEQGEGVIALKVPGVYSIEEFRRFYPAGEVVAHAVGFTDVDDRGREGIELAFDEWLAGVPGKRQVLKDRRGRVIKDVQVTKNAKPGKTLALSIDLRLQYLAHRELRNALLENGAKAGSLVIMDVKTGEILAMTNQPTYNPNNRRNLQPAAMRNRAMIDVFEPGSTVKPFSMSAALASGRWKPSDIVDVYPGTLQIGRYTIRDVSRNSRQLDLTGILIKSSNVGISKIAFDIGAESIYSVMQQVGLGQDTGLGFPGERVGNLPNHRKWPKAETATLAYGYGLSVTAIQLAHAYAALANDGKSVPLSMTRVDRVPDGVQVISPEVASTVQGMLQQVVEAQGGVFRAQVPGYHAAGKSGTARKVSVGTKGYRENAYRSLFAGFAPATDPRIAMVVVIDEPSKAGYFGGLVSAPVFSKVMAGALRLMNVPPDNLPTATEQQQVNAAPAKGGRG

| Structure (SMILES) | MIC (N. gonorrhoeae WHO G) | MIC (N. gonorrhoeae WHO Q) | MIC (E. coli AG100A) | MIC [1] | MIC (N. gonorrhoeae CDC-0197) | IC50 [2] | EC50 [3] | MIC (N. gonorrhoeae WHO L) | IC50 [4] | MIC (A. baumannii ATCC 17978) |
| --- | --- | --- | --- | --- | --- | --- | --- | --- | --- | --- |
| CS(=O)(=O)N1CCN(C(=O)NC(C(=O)N[C@H]2Cc3cccc(C(=O)O)c3OB2O)c2ccc(P(=O)(O)O)c(F)c2)C1=O (stereo partly drawn) [Example 12, (3R)-3-(2-(3-fluoro-4-phosphonophenyl)-2-(3-(methylsulfonyl)-2-oxoimidazolidine-1-carboxamido)acetamido)-2-hydroxy-3,4-dihydro-2H-benzo[e][1,2]oxaborinine-8-carboxylic acid] | < 1 µg/mL | < 1 µg/mL | 8 to 16 µg/mL (≈ 12.7 to 25.5 µM) | < 1 µg/mL | < 1 µg/mL | < 10 µM | < 10 µM | < 1 µg/mL |  |  |
| CS(=O)(=O)N1CCC[C@@H]1C(=O)N[C@H](C(=O)N[C@H]1Cc2cccc(C(=O)O)c2OB1O)c1ccc(P(=O)(O)O)cc1 [Example 34, (R)-2-hydroxy-3-((S)-2-((R)-1-(methylsulfonyl)pyrrolidine-2-carboxamido)-2-(4-phosphonophenyl)acetamido)-3,4-dihydro-2H-benzo[e][1,2]oxaborinine-8-carboxylic acid] | 4 to 8 µg/mL (≈ 6.72 to 13.4 µM) | 16 to 32 µg/mL (≈ 26.9 to 53.8 µM) | > 128 µg/mL | 16 to 32 µg/mL (≈ 26.9 to 53.8 µM) | 16 to 32 µg/mL (≈ 26.9 to 53.8 µM) | 50 to 250 µM | 50 to 250 µM | 16 to 32 µg/mL (≈ 26.9 to 53.8 µM) |  |  |
| CCN1CCN(C(=O)N[C@@H](C(=O)N[C@H]2Cc3cccc(C(=O)O)c3OB2O)c2ccc(P(=O)(O)O)c(F)c2)C(=O)C1=O (single isomer, unassigned) [Example 7] | < 1 µg/mL | < 1 µg/mL | 8 to 16 µg/mL (≈ 13.2 to 26.4 µM) | < 1 µg/mL | < 1 µg/mL |  | < 10 µM | < 1 µg/mL |  |  |
| O=C(O)c1c(F)ccc2c1OB(O)[C@@H](NC(=O)C(NC(=O)N1CCN(Cc3ccc(O)c(O)c3Cl)C1=O)c1ccc(P(=O)(O)O)cc1)C2 (stereo partly drawn) [Example 46, (3R)-3-(2-(3-(2-chloro-3,4-dihydroxybenzyl)-2-oxoimidazolidine-1-carboxamido)-2-(4-phosphonophenyl)acetamido)-7-fluoro-2-hydroxy-3,4-dihydro-2H-benzo[e][1,2]oxaborinine-8-carboxylic acid] | < 1 µg/mL | < 1 µg/mL |  | < 1 µg/mL | < 1 µg/mL | < 10 µM | < 10 µM | 4 to 8 µg/mL (≈ 5.66 to 11.3 µM) | < 10 µM |  |
| O=C(NCCN1CCN(C(=O)NC(C(=O)N[C@H]2Cc3ccc(F)c(C(=O)O)c3OB2O)c2ccc(P(=O)(O)O)cc2)C(=O)C1=O)c1ccc(O)c(O)c1Cl (stereo partly drawn) [Example 120, (3R)-3-(2-(4-(2-(2-chloro-3,4-dihydroxybenzamido)ethyl)-2,3-dioxopiperazine-1-carboxamido)-2-(4-phosphonophenyl)acetamido)-7-fluoro-2-hydroxy-3,4-dihydro-2H-benzo[e][1,2]oxaborinine-8-carboxylic acid] |  |  |  |  |  | < 10 µM | < 10 µM |  | < 10 µM | < 1 µg/mL |
| O=C(O)c1cccc2c1OB(O)[C@@H](NC(=O)C(NC(=O)N1CCN(Cc3ccc(O)c(O)c3Cl)C(=O)C1=O)c1ccc(P(=O)(O)O)cc1)C2 (stereo partly drawn) [Example 24, (3R)-3-(2-(4-(2-chloro-3,4-dihydroxybenzyl)-2,3-dioxopiperazine-1-carboxamido)-2-(4-phosphonophenyl)acetamido)-2-hydroxy-3,4-dihydro-2H-benzo[e][1,2]oxaborinine-8-carboxylic acid] | < 1 µg/mL | 1 to 2 µg/mL (≈ 1.4 to 2.79 µM) |  | < 1 µg/mL | 1 to 2 µg/mL (≈ 1.4 to 2.79 µM) | < 10 µM | < 10 µM | 4 to 8 µg/mL (≈ 5.58 to 11.2 µM) | < 10 µM | < 1 µg/mL |
| O=C(N[C@@H](C(=O)N[C@H]1Cc2cccc(C(=O)O)c2OB1O)c1ccc(P(=O)(O)O)cc1)c1ccc(O)c(O)c1Cl [Example 49, (R)-3-((R)-2-(2-chloro-3,4-dihydroxybenzamido)-2-(4-phosphonophenyl)acetamido)-2-hydroxy-3,4-dihydro-2H-benzo[e][1,2]oxaborinine-8-carboxylic acid] |  |  |  |  |  | > 250 µM | > 250 µM |  | < 10 µM | < 1 µg/mL |
| O=C(O)c1c(F)ccc2c1OB(O)[C@@H](NC(=O)C(NC(=O)N1CCN(Cc3ccc(O)c(O)c3Cl)C(=O)C1=O)c1ccc(P(=O)(O)O)c(F)c1)C2 (stereo partly drawn) [Example 23, (3R)-3-(2-(4-(2-chloro-3,4-dihydroxybenzyl)-2,3-dioxopiperazine-1-carboxamido)-2-(3-fluoro-4-phosphonophenyl)acetamido)-7-fluoro-2-hydroxy-3,4-dihydro-2H-benzo[e][1,2]oxaborinine-8-carboxylic acid] | < 1 µg/mL | < 1 µg/mL |  | < 1 µg/mL | < 1 µg/mL | < 10 µM | < 10 µM | 4 to 8 µg/mL (≈ 5.31 to 10.6 µM) | < 10 µM | < 1 µg/mL |
| O=C(O)c1c(F)ccc2c1OB(O)[C@@H](NC(=O)C(NC(=O)N1CCN(Cc3cc(F)c(O)c(O)c3Cl)C(=O)C1=O)c1ccc(P(=O)(O)O)cc1)C2 (stereo partly drawn) [Example 45, (3R)-3-(2-(4-(2-chloro-5-fluoro-3,4-dihydroxybenzyl)-2,3-dioxopiperazine-1-carboxamido)-2-(4-phosphonophenyl)acetamido)-7-fluoro-2-hydroxy-3,4-dihydro-2H-benzo[e][1,2]oxaborinine-8-carboxylic acid] | < 1 µg/mL | 1 to 2 µg/mL (≈ 1.33 to 2.66 µM) |  | < 1 µg/mL | 1 to 2 µg/mL (≈ 1.33 to 2.66 µM) | < 10 µM | < 10 µM | 4 to 8 µg/mL (≈ 5.31 to 10.6 µM) | < 10 µM | < 1 µg/mL |
